Assay results reported in the NIST ThermoML archive (doi:10.1016/j.jct.2012.12.015).
Numbers after ± are expanded uncertainties.

Columns and labels:
[1] = Crystal; visual observation
[2] = xn = mol fraction of the nth substance listed; settings: 101 kPa, Liquid, Pulse-echo method, x2 = 0.5

| Compound | Normal melting temperature [1] | speed of sound ([2]; 1065 K) | speed of sound ([2]; 1071 K) | speed of sound ([2]; 1075 K) |
| --- | --- | --- | --- | --- |
| [Ag][I] [silver iodide] | 559 ± 1 °C |  |  |  |
| [Ag][I] [silver iodide] + [Cl-].[Na+] |  | 1360 ± 8 m/s | 1357 ± 8 m/s | 1354 ± 8 m/s |
| [Cl-].[Na+] [sodium chloride] | 801 ± 1 °C |  |  |  |
